Measurements taken from patent publication US20170246236A1, “METHODS AND COMPOSITIONS FOR ENHANCED DELIVERY OF COMPOUNDS” (Sanford Burnham Prebys Medical Discovery Institute, priority 2010, published 2017).
Residues, ends and D or L forms follow the SMILES beside them.

How the values were obtained:
[1] = tested on: mitochondria in U87 cells; assay: Live cell imaging, co-localization with mitochondrial marker; format: cell-based, human
Procedure: (§1) Cell proliferation assay and imaging. The MTT [3-[4,5-dimethylthazol-2-yl]-2,5-diphenyl tetrazolium-bromide] assay (Molecular Probes, Eugene, Oreg.) was used to quantify cell proliferation. Cells were seeded in complete medium into 96-well plates (5×10^3 cells/well), and allowed to attach overnight at 37° C. in a humidified 5% CO2 atmosphere. The culture media was then removed and various concentrations of peptides or NWs were added. After 48, and 72 hours, 10 μL of the MTT reagent (5 mg/mL in PBS) was added to each well. The medium was removed from cells after 3 hours, and […] of DMSO:MEOH (1:1 v/v) were added to each well. The plates were read at a wavelength of 595 nm. For live cell imaging, cells seeded on glass-bottom plates (Willco, Amsterdam, Netherlands), and 24 hours later, the cells were washed and incubated with FAM-labeled peptides or NWs for 45 min at 37° C. The cells were then rinsed three times with PBS and incubated for an additional 15 min at 37° C. with […] MitoTracker Red (Molecular Probes, Eugene, Oreg.) followed by nuclear staining with Hoechst 33342 DNA dyes (Molecular Probe, Eugene, Oreg.) for 12 min. The cells were analyzed with Fluoview FV 500 confocal microscopy (Olympus America, Center Valley, Pa.).

[2] = tested on: mitochondria in HUVEC; assay: as above; format: cell-based, human
Procedure: as §1

[3] = tested on: purified mitochondria; assay: Peptide/phage binding to purified mitochondria; design: species or system mouse; details: increasing concentrations of unlabeled peptide
Procedure: Isolation of mitochondria and peptide/phage binding. Mitochondria were isolated from livers of Balb/c mice using differential centrifugation with buffers from a Pierce mitochondrial isolation kit for tissue according to the manufacture's instruction (Pierce Biotechnology, Rockford, Ill.). To test the binding of the CGKRK peptide to mitochondria, purified mitochondria were pre-incubated with various concentrations of non-labeled CGKRK or control peptide (CREKA; SEQ ID NO:92) for 30 min 4° C. FAM-CGKRK was then added and incubated for an additional 1 hour. The binding of the FAM peptide was quantified by fluorescence. In phage binding assays, purified mitochondria were suspended in 10 ml DMEM supplemented with 1% BSA, and incubated with 5×10^8 plaque-forming units (pfu) of peptide-displaying phage, overnight at 4° C. The mitochondria were washed 3 times with DMEM/BSA, the phage were collected with lysogeny broth containing 1% NP-40, and quantified by plaque assay.

[4] = tested on: proteins from brain tumor extracts; assay: CGKRK-binding proteins in glioblastoma tumor extracts (affinity matrix); details: mass spectrometry
Excerpt: Proteins from brain tumor extracts were bound to insolubilized (SulfoLink Resin; Pierce Biotechnology) CGKRK peptide. Proteins were eluted from the affinity matrix with either CGKRK peptide or with CREKA (SEQ ID NO:92) peptide (negative control). Silver-stained gels were used to show the proteins eluted with CGKRK and CREKA (SEQ ID NO:92). […] The bands in the CGKRK eluate were identified by mass spectrometry as the proteins listed.

[5] = tested on: GBM tumors; assay: In vivo peptide homing; design: species or system mouse; details: 200 μg Rd-labeled peptide i.v., 3 hours, 005 tumor mice
Procedure: In vivo peptide homing. […] Rhodamine-labeled CGKRK (200 μg) was intravenously injected into the mice and allowed to circulate for 3 hours. The mice were perfused with PBS through the heart under anesthesia, and tissues were collected and processed for fluorescence analysis.

Compound	co-localization with mitochondria [1]	co-localization with mitochondria [2]	further results
CC(C)C[C@@H](NC(=O)[C@H](N)CCCCN)C(=O)N[C@H](C)C(=O)N[C@H](CCCCN)C(=O)N[C@H](CC(C)C)C(=O)N[C@H](C)C(=O)N[C@H](CCCCN)C(=O)N[C@H](CCCCN)C(=O)N[C@H](CC(C)C)C(=O)N[C@H](C)C(=O)N[C@H](CCCCN)C(=O)N[C@H](CC(C)C)C(=O)N[C@H](C)C(=O)N[C@H](CCCCN)C(=O)N[C@@H](CS)C(=O)NCC(=O)N[C@@H](CCCCN)C(=O)N[C@@H](CCCNC(=N)N)C(=O)N[C@@H](CCCCN)C(=O)O [CGKRK-D[KLAKLAK]2 peptide]	colocalized with mitochondria	colocalized with mitochondria	
D[KLAKLAK]2: α-helical amphipathic pro-apoptotic peptide, SEQ ID NO:3 (KLAKLAKKLAKLAK; D-amino acids; membrane perturbing molecule) [reference compound]	did not	did not	
CREKA: Unrelated control peptide, SEQ ID NO:92 (clot binding/homing peptide)			inhibition of FAM-CGKRK binding to mitochondria by unlabeled peptide [3]: not; proteins eluted from CGKRK affinity matrix [4]: failed to elute any visible protein bands
N=C(N)NCCC[C@H](NC(=O)[C@H](CCCCN)NC(=O)CNC(=O)[C@@H](N)CS)C(=O)N[C@@H](CCCCN)C(=O)O [CGKRK, Cys-Gly-Lys-Arg-Lys] (H-CGKRK-OH)			peptide in normal tissues [5]: not in normal tissues; peptide in normal tissues ([5]; listed as CGKRK peptide): appeared in kidney but not in heart, pancreas, liver, lung, or spleen
